SMILES strings stand for the structures.

The nature of the series: Human HepG2 cell viability assay in 384 well format. It is filed as toxicity, cell-based. The settings on record: HepG2 cells, read-out: Inhibition. More on the design: dose 125 nL, time 70.5 hour; concentration not given beside the values.
`CN(C)Cc1ccnc(C2CCCN2Cc2cccc(F)c2F)n1` (configuration not stated): the cytotoxicity at 70.5 h is -2.17%.

Take `CN(C(=O)COc1ccc(F)cc1)[C@@H]1CC[C@@H](n2ccnc2)[C@@H]1O`: the cytotoxicity at 70.5 h is -4.21%.

On to `O=C(c1ccncc1)N1CC[C@@H](O)[C@@H](O)[C@H](N2CCC(F)(F)CC2)C1`, for which the cytotoxicity at 70.5 h was -0.846%.

As for `Cc1cccc(CN2CCCC2c2cccc(CCC(=O)O)n2)c1` (configuration not stated), the cytotoxicity at 70.5 h amounted to 15.7%.

With `O[C@@H]1CN(Cc2ccncc2)C[C@H]1Oc1ccccc1`, the cytotoxicity at 70.5 h was -5.71%.

Take `CNc1cccc(C2CCCN(C(=O)c3cncs3)C2)n1` (configuration not stated): the cytotoxicity at 70.5 h was -4.52%.

Regarding `CNC(=O)c1cccc(C2CNCCN2C(=O)c2ccn(C)n2)c1` (configuration not stated), the cytotoxicity at 70.5 h was determined as 0.974%.

In the case of `CCc1cc(C(=O)N2CCCC2c2nc(O)cc(CC)n2)on1` (configuration not stated), the cytotoxicity at 70.5 h was -1.1%.

Regarding `Cc1nc(Nc2ncccn2)cc(C2CCCN2Cc2ncc[nH]2)n1` (configuration not stated), the cytotoxicity at 70.5 h was -2.88%.

Regarding `Cc1cncc(CN2C[C@@H](O)[C@H](Oc3ccccc3)C2)c1`, the cytotoxicity at 70.5 h is -0.379%.

On to `Cc1ccc(S(=O)(=O)N2CCC(O)(CN(C)C)C2)cc1` (configuration not stated), for which the cytotoxicity at 70.5 h is -4.32%.

As to `NCc1cn(-c2ccccc2C(=O)NCc2ccccc2Cl)cn1`, the cytotoxicity at 70.5 h is -8.27%.

`COc1ccccc1CNC(=O)c1ccccc1-n1cnc(CN)c1`: the cytotoxicity at 70.5 h was -9.04%.

Turning to `CNC(=O)C1(c2cnccn2)CCCN1C(=O)c1cccnc1OC` (configuration not stated), the cytotoxicity at 70.5 h is -9.36%.

As for `Cc1nc(O)c2nnn(C[C@H]3CCCN3C(=O)c3ccccc3C)c2n1`, the cytotoxicity at 70.5 h stood at 11.5%.

As for `C=Cn1ncc(CN2C[C@@H]3CCCN3C[C@@H]2CCSC)c1C`, the cytotoxicity at 70.5 h is -6.32%.

Take `CN(C)CC1(O)CCN(S(=O)(=O)c2cccc(F)c2)C1` (configuration not stated): the cytotoxicity at 70.5 h was -4.11%.

`CNc1cccc(C2CCCN(C(=O)Cc3ccccc3)C2)n1` (configuration not stated): the cytotoxicity at 70.5 h was -7.78%.

Turning to `CN(C)S(=O)(=O)N1CCCC(c2cccc(Cc3ccc(Cl)cc3)n2)C1` (configuration not stated), the cytotoxicity at 70.5 h came to 17.5%.

In the case of `CCS(=O)(=O)N1CCCC(Cc2cnccn2)C1` (configuration not stated), the cytotoxicity at 70.5 h is -6.07%.

Take `Cc1cn[nH]c1C1CCCCN1C(=O)CCc1ccc(F)cc1` (configuration not stated): the cytotoxicity at 70.5 h is -6.22%.

Regarding `CNc1cc(CNC(=O)c2cccnc2)nc(-c2ccncc2)n1`, the cytotoxicity at 70.5 h was -1.87%.

For the molecule `CCc1ccc(C(=O)N2CC[C@H](Oc3cccnc3C)[C@@H](O)CC2)cc1`, the cytotoxicity at 70.5 h was found to be 14.4%.

For the molecule `Nc1cc(CCC2CN(Cc3cccc(C(=O)O)c3)CCO2)ccn1` (configuration not stated), the cytotoxicity at 70.5 h was -7.61%.

`Cc1n[nH]cc1C(=O)N1CCCC(c2cccc(-n3ccnc3)n2)C1` (configuration not stated): the cytotoxicity at 70.5 h was -7.73%.

Turning to `Cc1ccc(C(=O)N2CCCC(c3[nH]ncc3S(C)(=O)=O)C2)s1` (configuration not stated), the cytotoxicity at 70.5 h was 10.6%.

Turning to `O=C(Cc1cccs1)N1CCC(O)(CN2CCc3ccccc3C2)C1` (configuration not stated), the cytotoxicity at 70.5 h is -4.88%.

Take `CCc1cc(C(=O)N2CCCC(c3[nH]ncc3S(C)(=O)=O)C2)no1` (configuration not stated): the cytotoxicity at 70.5 h is -7.59%.

With `Cc1ccsc1C(=O)N1CCC(O)(CN2CCc3ccccc3C2)C1` (configuration not stated), the cytotoxicity at 70.5 h was -6.62%.

As to `CN(C(=O)C1CCOCC1)[C@@H]1CCC[C@@H](N2CCOCC2)[C@@H]1O`, the cytotoxicity at 70.5 h was -5.89%.

`CC(O)c1cnn(-c2ccccc2)c1` (configuration not stated): the cytotoxicity at 70.5 h was 45.1%.

Turning to `Cc1ncc(C(=O)N2CCCC2c2c(C)nn(C)c2C)s1` (configuration not stated), the cytotoxicity at 70.5 h is -2.56%.

`C[C@H](O)c1cnn(-c2ccccc2)c1`: the cytotoxicity at 70.5 h is -1.87%.

Take `Cc1cc(C)c(C(=O)N(C)CCN(C)C(=O)OC(C)(C)C)[nH]1`: the cytotoxicity at 70.5 h turned out to be 6.57%.

For `Cc1cc(C(=O)N(C)CCN(C)C(=O)OC(C)(C)C)oc1C`, the cytotoxicity at 70.5 h is -2.24%.

For `Cc1ccc(C(C)N(C)C(=O)c2ccc(=O)n(C)c2)s1` (configuration not stated), the cytotoxicity at 70.5 h is -0.24%.

`CCc1ccsc1C(=O)NC(C#N)CC(C)C` (configuration not stated): the cytotoxicity at 70.5 h is -2.59%.

With `CCN1CCCC(NC(=O)c2ccc(C)[nH]c2=O)C1` (configuration not stated), the cytotoxicity at 70.5 h was -8.86%.

Regarding `Cc1ccc(C(=O)NC2CCN(C(C)C)C2)c(=O)[nH]1` (configuration not stated), the cytotoxicity at 70.5 h was -14.4%.

On to `Cc1ccc(C(=O)NC2CCCN(C)C2)c(=O)[nH]1` (configuration not stated), for which the cytotoxicity at 70.5 h is -12.5%.

As for `Cc1nn(C)c(C)c1S(=O)(=O)NCC1(C(N)=O)CCOCC1`, the cytotoxicity at 70.5 h was -11.5%.

For the molecule `CC(C(=O)NCC(C)(C)c1ccc2c(c1)OCO2)n1ccnc1` (configuration not stated), the cytotoxicity at 70.5 h was -1.09%.

For `CCOCCN1CCN(c2ccc(C#N)cn2)CC1`, the cytotoxicity at 70.5 h was -9.92%.

`Cc1nc(NCc2nncn2C2CC2)c2c(CC(C)C)csc2n1`: the cytotoxicity at 70.5 h was determined as 20%.

In the case of `Cc1cc(C)c(NC(=O)Nc2cnn(CC(O)CN(C)C)c2)c(C)c1` (configuration not stated), the cytotoxicity at 70.5 h was -13.2%.

In the case of `N#Cc1ccc(Cl)cc1NCC1CC1`, the cytotoxicity at 70.5 h is -5.4%.

Take `Cc1nc(COC(=O)c2cccc3c2OCCO3)cs1`: the cytotoxicity at 70.5 h was -11.2%.

As to `CS(=O)(=O)N1CCC(CNc2c(Cl)cccc2C#N)CC1`, the cytotoxicity at 70.5 h is -1.91%.

As to `Cc1cc(C)c(CNc2cnn(CC(O)CN(C)C)c2)c(C)c1` (configuration not stated), the cytotoxicity at 70.5 h was -11.8%.

For `N#CC1COCCN1C(=O)c1ccc2[nH]ccc2c1` (configuration not stated), the cytotoxicity at 70.5 h is 0.401%.

Take `CCOCCN1CCN(c2ccc(C#N)cn2)CC1CC` (configuration not stated): the cytotoxicity at 70.5 h is 1.12%.

As to `CCOCCN1CCN(c2ncccc2C#N)CC1CC` (configuration not stated), the cytotoxicity at 70.5 h was -3.73%.

Take `Cc1oc(-c2ccco2)nc1CN1CCc2cnc(C(C)C)nc2C1`: the cytotoxicity at 70.5 h is -12%.

With `CC(NCc1cccc(COC2CCCC2)c1)c1cnn(C)c1` (configuration not stated), the cytotoxicity at 70.5 h is -3.04%.

With `O=C(NC1CC1)c1ccc(SCc2cscn2)cc1`, the cytotoxicity at 70.5 h was -9.79%.

As to `Cc1noc(C(C)Nc2ccc3oc(C)nc3c2)n1` (configuration not stated), the cytotoxicity at 70.5 h was found to be 11.9%.

Consider `N#Cc1ccccc1CN1CCc2sccc2C1`, for which the cytotoxicity at 70.5 h was -8.96%.

On to `CC(CNC(=O)c1cccnc1O)Cn1cccn1` (configuration not stated), for which the cytotoxicity at 70.5 h was -7.01%.

For the molecule `Cc1ccc(CNC(=O)Nc2nnc(C3CC3)s2)n1C`, the cytotoxicity at 70.5 h was -0.672%.

`CCC(C#N)NC(=O)CCNC(=O)C(C)(C)C` (configuration not stated): the cytotoxicity at 70.5 h amounted to 0.625%.

As to `COc1cc(Cl)ccc1C(=O)NCc1n[nH]c(C)n1`, the cytotoxicity at 70.5 h came to 1.46%.

Consider `Cc1ccccc1C(C#N)NC(=O)c1cccc2c1OCCO2` (configuration not stated), for which the cytotoxicity at 70.5 h stood at 11%.

Consider `Cc1[nH]nc2ncc(C(=O)N3CCN(CC(O)C(C)(C)C)CC3)cc12` (configuration not stated), for which the cytotoxicity at 70.5 h is -1.93%.

On to `COC(C)c1noc(CN(C)c2nccnc2C#N)n1` (configuration not stated), for which the cytotoxicity at 70.5 h turned out to be 1.72%.

As for `CC(CNS(N)(=O)=O)Oc1ccc(Cl)cc1` (configuration not stated), the cytotoxicity at 70.5 h stood at 1.53%.

Regarding `CN(C)c1nc(CNC(=O)NC2CCc3ccccc32)cs1` (configuration not stated), the cytotoxicity at 70.5 h was -0.66%.

For `c1ccc2oc(N3CCn4c(nnc4C4CC4)C3)nc2c1`, the cytotoxicity at 70.5 h is -2.1%.

Consider `CC(C)N1CCC(O)(CNC(=O)CC2OCCc3ccccc32)CC1` (configuration not stated), for which the cytotoxicity at 70.5 h turned out to be 4.01%.

As for `CN(c1nc(Cn2cc(Br)ccc2=O)cs1)C1CC1`, the cytotoxicity at 70.5 h was -4.85%.

With `O=C(CN1CCCS1(=O)=O)Nc1ccc(OC2CCCC2)cc1`, the cytotoxicity at 70.5 h is -0.244%.

Turning to `CSc1c[nH]nc1NS(=O)(=O)c1cc(F)ccc1Cl`, the cytotoxicity at 70.5 h was -0.455%.

As for `COC(C)c1noc(CN(C)c2ncccn2)n1` (configuration not stated), the cytotoxicity at 70.5 h was -1.92%.

As to `CN(Cc1ccc(C(=O)O)cc1)C(=O)c1sccc1OC(F)F`, the cytotoxicity at 70.5 h is 3.59%.

For `CC(C)c1nnc2n1CCN(c1nc3ccccc3o1)C2`, the cytotoxicity at 70.5 h was -10.1%.

With `CN(c1nc(Cn2cnccc2=O)cs1)C1CC1`, the cytotoxicity at 70.5 h is -4.18%.

Turning to `CS(=O)(=O)C1(CNCc2cccc(-n3cccn3)c2)CCOCC1`, the cytotoxicity at 70.5 h is 12.5%.

As to `CCn1cnnc1CCNS(=O)(=O)N1CCCC1c1ccco1` (configuration not stated), the cytotoxicity at 70.5 h is -9.13%.

`CCc1noc(C(C)Sc2nnc(C3CC3)n2CC(N)=O)n1` (configuration not stated): the cytotoxicity at 70.5 h is -0.541%.

In the case of `O=C(NCC1CCS(=O)(=O)C1)N(Cc1ccccn1)C1CC1` (configuration not stated), the cytotoxicity at 70.5 h is -6.34%.

For `O=C(NCc1cc(-c2ccccc2)no1)NC1CCCCNC1=O` (configuration not stated), the cytotoxicity at 70.5 h stood at 4.05%.

Turning to `O=C(NCC(=O)N1CCCCC1)c1sccc1C1CC1`, the cytotoxicity at 70.5 h was determined as 7.84%.

For the molecule `COc1ccccc1C(C)(C)NC(=O)c1cc(NC(C)=O)ccc1F`, the cytotoxicity at 70.5 h is -6.53%.

In the case of `CCc1cc(=O)[nH]c(-c2ccc(NCCC(C)O)nc2)n1` (configuration not stated), the cytotoxicity at 70.5 h was -5.98%.

Take `Cc1nnc(N2CCc3cnc(C(C)C)nc3C2)c(C#N)c1C`: the cytotoxicity at 70.5 h was determined as 1.1%.

Consider `CCOC(=O)C1(O)CCN(C(=O)Nc2cccc(F)c2)CC1`, for which the cytotoxicity at 70.5 h was determined as 4.4%.

With `Cc1occc1CNc1ncccc1S(N)(=O)=O`, the cytotoxicity at 70.5 h is -3.76%.

With `CC(C)c1nnc(CN2CC(n3cccn3)Cc3ccccc32)o1` (configuration not stated), the cytotoxicity at 70.5 h was -4.11%.

In the case of `CCn1cnnc1CNS(=O)(=O)N1CCCC1c1ccc(C)o1` (configuration not stated), the cytotoxicity at 70.5 h is -4.31%.

For `O=C(NCC(=O)N1CCN(c2ccccc2)CC1)c1sccc1C1CC1`, the cytotoxicity at 70.5 h is -2.46%.

As for `Cn1cc(C2CCCN2C(=O)Cc2coc(-c3ccccc3)n2)cn1` (configuration not stated), the cytotoxicity at 70.5 h was -7.27%.

With `O=C(c1ccccc1F)N1CCN(CCCn2cncn2)CC1`, the cytotoxicity at 70.5 h is -5.46%.

As for `Cc1cc(NC(=O)N2CCCC(CO)C2)nn1-c1ccccc1Cl` (configuration not stated), the cytotoxicity at 70.5 h was -1.91%.

As to `Cc1ccc(-c2cc(CNCCn3cc(C)cn3)on2)cc1`, the cytotoxicity at 70.5 h was -1.34%.

On to `Cc1ccoc1C(=O)NC(CC(C)C)C(=O)N1CCC(CO)CC1` (configuration not stated), for which the cytotoxicity at 70.5 h came to 27.4%.

As for `CNC(=O)CN1CCN(C(=O)Nc2ccc(C)s2)CC1`, the cytotoxicity at 70.5 h is -1.2%.

`Cn1c(NCCC(=O)N2CCCC2)c(C#N)c(=O)n(C)c1=O`: the cytotoxicity at 70.5 h was found to be 3.58%.

`Cn1c(NCCN2CCCCCC2)c(C#N)c(=O)n(C)c1=O`: the cytotoxicity at 70.5 h is -7.25%.

In the case of `CCNc1c(C#N)c(=O)n(C)c(=O)n1C`, the cytotoxicity at 70.5 h was -8.97%.

For `CCN(CC)S(=O)(=O)N1CCc2nc(C3CCNCC3)ncc2C1`, the cytotoxicity at 70.5 h was -4.41%.

Consider `CC(C)c1nn(C)c(Cl)c1CNCC(=O)N1CCN(C)CC1`, for which the cytotoxicity at 70.5 h is -4.93%.

As for `COc1cc(CN(CCCN(C)C)Cc2ccccn2)cc2c1OCO2`, the cytotoxicity at 70.5 h came out at 0.223%.

Turning to `Fc1ccc(OCCCNC2=NCCN2)cc1`, the cytotoxicity at 70.5 h was -14.3%.
